Patent US4594238A (Regents of University of Minnesota, priority 1984, dated 1986)
Where two headings read alike, the source gives them in different places.

Experiments:
Rat mammary tumor 13762 = assay: Comparative tumor response to DDP with and without NaDDTC rescue, Example 2; format: in vivo, Female F344 (Fischer) rats
Description: Female F344 (Fischer) rates, initial weight 100-150 g, were obtained from the Charles River Breeding Laboratory, Wilmington, MA. They were housed in methacrylate cages and given Purina rat chow and water ad libitum for at least one week. Lean weight of the rats were 150 g at the onset of experiments unless otherwise noted.
Mammary Tumor 13762 was obtained in the form of an implanted tumor in a female F344 rat. All intravenous injections were carried out under brief ether anesthesia.
Tumor inoculation was carried out as follows: two rats bearing tumors having a mean diameter of 2.5-3.5 cm were sacrificed using ether anesthesia. The tumors were excised immediately, finely minced, combined, and resuspended in 20-40 ml of normal saline. This suspension was filtered through a gauze pad to remove coarse pieces of tissue and the resulting suspension inoculated subcutaneously (0.2-0.5 ml/injection) into the left flank of each rat.

[1] = Platinum excretion kinetics / platinum accumulation after DDP; format: in vivo; settings: four rats
Description: Platinum excretion kinetics were measured in four animals by measuring urinary platinum levels every 30 minutes for 4 hours and then every 2 hours for an additional 12 hours. Urinary platinum concentration declined to <10% of maximal concentration within 1.5 hours and >95% of the platinum excreted by the kidneys had appeared in the urine by this time.

[2] = after DDP; cited from earlier work
[3] = mannitol diuresis coupled with intravenous prehydration, dogs; cited from earlier work
[4] = mannitol diuresis coupled with intravenous prehydration, humans; cited from earlier work

SMILES	Other (non-relapsed) rats through day 50 (Rat mammary tumor 13762; DDP 2 mg/kg i.v., control, n=8)	Rats with relapse between days 25 and 30 (Rat mammary tumor 13762; DDP 2 mg/kg i.v., control, n=8)	Rats bearing tumors at day 24 (Rat mammary tumor 13762; DDP 2 mg/kg without rescue)	Tumor-free rats at day 24 (Rat mammary tumor 13762; DDP 2 mg/kg without rescue)	Mean tumor diameter at day 30 (Rat mammary tumor 13762; DDP 2 mg/kg without rescue, six rats)	Mean minimum tumor diameter (Rat mammary tumor 13762; DDP 2 mg/kg without rescue, six tumor-bearing rats, day 24)	Tumor-free rats by day 28 (Rat mammary tumor 13762; DDP 8 mg/kg, unrescued)	Animals with spontaneous relapse at the original site (Rat mammary tumor 13762; after DDP)	Time of spontaneous relapse after DDP administration (Rat mammary tumor 13762; rat, in vivo)	Fraction of kidney-excreted platinum in the urine by […] [1]	Urinary platinum concentration within […], of maximal concentration [1]	Time of maximal platinum accumulation (renal tubule) [2]	Amelioration of acute platinum toxicity [3]	Amelioration of acute platinum toxicity [4]
N.N.[Cl][Pt][Cl] [DDP, cis-dichlorodiammineplatinum(II), reference compound]	essentially free of tumor through day 50	2/8	6/8	2/8	2.4 cm	1.6 cm	3/8	25-75%	approximately 15 days	> 95%	< 10%	30 to 60 min		
OC[C@@H](O)[C@@H](O)[C@H](O)[C@H](O)CO [mannitol]													ameliorate acute toxicity	ameliorate acute toxicity
